{"source": "PubChem BioAssay AID1000", "about": "(SRMLSC, 2008)", "note": "Active and inactive are the calls of the source.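 How the source made its calls: active means over 20% inhibition at the single screening dose, then confirmed by dose response with half-maximal potency of 40 µM or better; inactive means the rest.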"}
{"biological_target": "mevalonate kinase (Streptococcus pneumoniae D39)", "test": "S. pneumoniae MK inhibition retest, confirmation, biochemical, cuvette format, NADH absorbance 340 nm (AID 1000)", "conditions": "recombinant MK, PK/LDH coupled NADH absorbance 340 nm", "units": {"IC50": "nM"}}
{"smiles": "O=C(c1ccc(-n2sc3ccccc3c2=O)cc1)N1CCCC1", "IC50": 198}
{"smiles": "CCN(CC)C(=O)c1ccc(-n2sc3ccccc3c2=O)cc1", "IC50": 230}
{"smiles": "O=C(c1ccc(-n2sc3ccccc3c2=O)cc1)N1CCCCC1", "IC50": 246}
{"smiles": "O=C(NC1CC1)c1cccc(-n2sc3ccccc3c2=O)c1", "IC50": 197}
{"smiles": "CCCN(CCC)C(=O)c1ccccc1-n1sc2ccccc2c1=O", "IC50": 795}
{"smiles": "O=C(NCc1ccccc1)c1cccc(-n2sc3ccccc3c2=O)c1", "IC50": 68}
{"smiles": "O=C(NCc1ccccc1)c1ccc(-n2sc3ccccc3c2=O)cc1", "IC50": 94}
{"smiles": "CCCN(CCC)C(=O)c1ccc(-n2sc3ccccc3c2=O)cc1", "IC50": 168}
{"smiles": "O=C(c1ccccc1-n1sc2ccccc2c1=O)N1CCOCC1", "IC50": 1630}
{"smiles": "O=c1c2ccccc2nc2n1CCC2NC(c1ccccc1)c1ccccc1", "note": "(configuration not stated)", "IC50": 17300}
{"smiles": "O=C(NC1CC1)c1ccc(-n2sc3ccccc3c2=O)cc1", "IC50": 171}
{"smiles": "O=C(NCc1ccco1)c1ccc(-n2sc3ccccc3c2=O)cc1", "IC50": 157}
{"smiles": "CCCNC(=O)c1ccc(-n2sc3ccccc3c2=O)cc1", "IC50": 134}
{"smiles": "O=C(c1cccc(-n2sc3ccccc3c2=O)c1)N1CCOCC1", "IC50": 432}
{"smiles": "CCCN(CCC)C(=O)c1cccc(-n2sc3ccccc3c2=O)c1", "IC50": 304}
{"smiles": "O=C(NCc1ccco1)c1ccccc1-n1sc2ccccc2c1=O", "IC50": 579}
{"smiles": "O=C(c1ccc(-n2sc3ccccc3c2=O)cc1)N1CCOCC1", "IC50": 383}
{"smiles": "CN1CCN(C(=O)c2ccc(-n3sc4ccccc4c3=O)cc2)CC1", "IC50": 459}
{"smiles": "CN(C)C(=O)c1cccc(-n2sc3ccccc3c2=O)c1", "IC50": 369}
{"smiles": "O=C(c1cccc(-n2sc3ccccc3c2=O)c1)N1CCCC1", "IC50": 230}
{"smiles": "Cc1ccc(-n2sc3ccccc3c2=O)cc1S(=O)(=O)N1CCCC1", "IC50": 83}
{"smiles": "CCCNC(=O)c1ccccc1-n1sc2ccccc2c1=O", "IC50": 381}
{"smiles": "CCN(CC)C(=O)c1cccc(-n2sc3ccccc3c2=O)c1", "IC50": 214}
{"smiles": "O=C(NCc1ccccc1)c1ccccc1-n1sc2ccccc2c1=O", "IC50": 242}
{"smiles": "O=C(NCc1ccco1)c1cccc(-n2sc3ccccc3c2=O)c1", "IC50": 137}
{"smiles": "Cc1ccc(-n2sc3ccccc3c2=O)cc1C(=O)N1CCCCC1", "IC50": 306}
{"smiles": "O=C(NC1CC1)c1ccccc1-n1sc2ccccc2c1=O", "IC50": 958}
{"smiles": "O=C(NCCN1CCCC1)c1ccc(-n2sc3ccccc3c2=O)cc1", "IC50": 304}
{"smiles": "CCN(CC)C(=O)c1ccccc1-n1sc2ccccc2c1=O", "IC50": 1010}
{"smiles": "O=C(c1ccccc1-n1sc2ccccc2c1=O)N1CCCC1", "IC50": 514}
{"smiles": "CCCNC(=O)c1cccc(-n2sc3ccccc3c2=O)c1", "IC50": 277}
{"smiles": "CN(C)C(=O)c1ccccc1-n1sc2ccccc2c1=O", "IC50": 754}
{"smiles": "O=C(c1ccccc1-n1sc2ccccc2c1=O)N1CCCCC1", "IC50": 531}
{"smiles": "O=C(NCC1CC1)c1ccc(-n2sc3ccccc3c2=O)cc1", "IC50": 176}
{"smiles": "CN(C)C(=O)c1ccc(-n2sc3ccccc3c2=O)cc1", "IC50": 389}
{"smiles": "O=C(c1cccc(-n2sc3ccccc3c2=O)c1)N1CCCCC1", "IC50": 244}
{"biological_target": "mevalonate kinase (Streptococcus pneumoniae D39)", "test": "S. pneumoniae MK inhibition retest, confirmation, biochemical, cuvette format, NADH absorbance 340 nm (AID 1000)", "conditions": "recombinant MK, PK/LDH coupled NADH absorbance 340 nm; at 100 µM; stronger effect = higher value"}
{"smiles": "O=c1c2ccc(Cl)cc2nc2n1CCC2", "inhibition": "inactive"}
{"smiles": "Cc1cccc2c(=O)n3c(nc12)CCC3", "inhibition": "inactive"}
{"smiles": "O=c1c2cc(Br)ccc2nc2n1CCC2", "inhibition": "inactive"}
{"smiles": "O=c1c2ccccc2nc2n1CCC2(Br)Br", "inhibition": "inactive"}
{"smiles": "COc1cccc2c(=O)n3c(nc12)/C(=C/c1ccc2c(c1)OCO2)CC3", "inhibition": "inactive"}
{"smiles": "COc1cc2nc3n(c(=O)c2cc1OC)CCC3", "inhibition": "inactive"}
{"smiles": "O=c1c2ccccc2nc2n1CCC2SCCc1ccccc1", "note": "(configuration not stated)", "inhibition": "inactive"}
{"smiles": "O=c1c2cc(F)ccc2nc2n1CCC2", "inhibition": "inactive"}
{"smiles": "COc1cccc(CCNC2CCn3c2nc2ccccc2c3=O)c1", "note": "(configuration not stated)", "inhibition": "inactive"}
{"smiles": "O=c1c2ccc(F)cc2nc2n1CCC2", "inhibition": "inactive"}
{"smiles": "Cc1ccc2nc3n(c(=O)c2c1)CCC3", "inhibition": "inactive"}
{"smiles": "O=c1c2c(Cl)cccc2nc2n1CCC2", "inhibition": "inactive"}
{"smiles": "O=c1c2ccccc2nc2n1CCC2N1CCOCC1", "note": "(configuration not stated)", "inhibition": "inactive"}
{"smiles": "COc1ccc(CSC2CCn3c2nc2ccccc2c3=O)cc1", "note": "(configuration not stated)", "inhibition": "inactive"}
{"smiles": "O=c1c2cccc(Cl)c2nc2n1CCC2", "inhibition": "inactive"}
{"smiles": "O=c1c2c(F)cccc2nc2n1CCC2", "inhibition": "inactive"}
{"smiles": "O=c1c2cc(Cl)ccc2nc2n1CCC2", "inhibition": "inactive"}
{"smiles": "O=c1c2ccccc2nc2n1CCC2NC1CC1", "note": "(configuration not stated)", "inhibition": "inactive"}
{"smiles": "COc1cccc2c(=O)n3c(nc12)CCC3", "inhibition": "inactive"}
{"smiles": "O=c1c2ccccc2nc2n1CCC2N1CCC(Cc2ccccc2)CC1", "note": "(configuration not stated)", "inhibition": "inactive"}
{"smiles": "O=c1c2ccccc2nc2n1CCC2SCc1ccccc1", "note": "(configuration not stated)", "inhibition": "inactive"}
